From PubChem BioAssay (NCI) come the findings set out here.

Among the test systems are A549 NSCLC; SK-MEL-5 melanoma; 786-0 renal; A498 renal; HL-60(TB) leukemia; CAKI-1 renal; SW-620 colon; MDA-MB-435; T-47D breast; UACC-257 melanoma.
Common to all, as to experiment: NCI-60 cell line screen, 48 h

“And” between values parts separate entries of the source, which are not always exact repeats. Identical values can stand only once.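 Each compound was tested at five concentrations against cells in 96-well plates for 48 hours. GI50 is the concentration that inhibits growth by half. The concentration for full growth arrest is given as TGI.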

Regarding `Nc1ncnc2c1ncn2C1C=C(CO)C(O)C1O` (stereo unspecified), the TGI is above 100 µM in the assay with A549 NSCLC; above 100 µM in the assay on SK-MEL-5 melanoma; above 100 µM in the assay with 786-0 renal; 43.5 µM with A498 renal; 2.73 µM with HL-60(TB) leukemia; above 93.6 µM in the assay with CAKI-1 renal. Besides, the TGI with SW-620 colon was above 86.8 µM; in the assay with MDA-MB-435, above 100 µM; in the assay on T-47D breast, 10.2 µM; in the assay on UACC-257 melanoma it was above 100 µM.
For `Nc1ncc(-c2cnn(C3CCNCC3)c2)cc1-c1nc2cc(Cl)ccc2o1`, the GI50 in the assay with A549 NSCLC is 1.53 µM; with SK-MEL-5 melanoma, 1.66 µM; with 786-0 renal, 1.71 µM; with A498 renal, 1.71 µM; in the assay on HL-60(TB) leukemia, 1.56 µM; with CAKI-1 renal, 1.58 µM. Further, the GI50 with SW-620 colon is 0.363 µM; with MDA-MB-435, 1.77 µM; in the assay with T-47D breast, 1.62 µM; with UACC-257 melanoma, 1.29 µM. The TGI was 3.11 µM in the assay with A549 NSCLC; 3.08 µM in the assay on SK-MEL-5 melanoma; 3.16 µM in the assay with 786-0 renal; 3.12 µM with A498 renal; 3.2 µM with HL-60(TB) leukemia; 3.09 µM with CAKI-1 renal. In addition, the TGI was 1.34 µM with SW-620 colon, 3.36 µM in the assay on MDA-MB-435, 3.34 µM in the assay with T-47D breast and 2.59 µM in the assay with UACC-257 melanoma.
With `Cc1ccc(C)c(NC(=O)CC2Sc3ccccc3NC2=O)c1` (stereo unspecified), the GI50 in the assay with A549 NSCLC is 24.9 µM and 70.8 µM; in the assay with SK-MEL-5 melanoma, 30.3 µM and 91.6 µM; in the assay with A498 renal, 15.1 µM and 34 µM; with CAKI-1 renal it was 18.9 µM and 45.2 µM; in the assay with SW-620 colon it was 26.2 µM and > 77.1 µM; with T-47D breast it was 17.4 µM and > 63.1 µM. Moreover, the TGI is above 100 µM in the assay on A549 NSCLC; 43.2 µM and > 100 µM with SK-MEL-5 melanoma; 30.7 µM and 58.6 µM in the assay on 786-0 renal; 23.7 µM and 60.9 µM with A498 renal; above 100 µM in the assay on HL-60(TB) leukemia; 33.1 µM and 99.1 µM in the assay on CAKI-1 renal. The TGI with SW-620 colon was above 100 µM; with MDA-MB-435, 85 µM and > 100 µM; with T-47D breast, 83.9 µM and > 100 µM; in the assay with UACC-257 melanoma, above 97.1 µM.
As for `COc1ccc2c(c1)C(=O)/C(=C/c1cccc(OCC(=O)c3ccccc3)c1)O2`, the GI50 in the assay with A549 NSCLC is 4.93 µM; in the assay with SK-MEL-5 melanoma, 14.3 µM; with 786-0 renal, 4.59 µM; in the assay on A498 renal, 17.3 µM; with HL-60(TB) leukemia, 1.39 µM; with CAKI-1 renal, 3.16 µM. Besides, the GI50 in the assay on SW-620 colon is 1.77 µM; in the assay on MDA-MB-435, 3.4 µM; in the assay on T-47D breast it was 2.04 µM; in the assay with UACC-257 melanoma it was 18.8 µM. Further, the TGI stood at 24.9 µM in the assay with A549 NSCLC; 28.1 µM in the assay with SK-MEL-5 melanoma; 17.5 µM in the assay with 786-0 renal; 31 µM in the assay on A498 renal; 3.23 µM in the assay on HL-60(TB) leukemia; 11.5 µM with CAKI-1 renal. Moreover, the TGI was determined as 3.43 µM in the assay on SW-620 colon, 13.6 µM in the assay with MDA-MB-435, 4.88 µM in the assay with T-47D breast and 33.5 µM with UACC-257 melanoma.
Regarding `O=C(O)CSCCc1ccccc1`, the TGI was above 100 µM in the assay with A549 NSCLC; above 100 µM in the assay on SK-MEL-5 melanoma; above 100 µM with 786-0 renal; above 100 µM in the assay on A498 renal; 1.98 µM in the assay on HL-60(TB) leukemia; above 100 µM in the assay on CAKI-1 renal. Further, the TGI in the assay with SW-620 colon, in the assay on MDA-MB-435, in the assay on T-47D breast and in the assay with UACC-257 melanoma was above 100 µM in each case.
On to `Cc1ccc(C2=C(c3ccc(C)cc3)C3(c4ccc(C)cc4)C4C(=O)OC(=O)C4C2(c2ccc(C)cc2)S3=O)cc1` (stereo unspecified), for which the GI50 is 32 µM with A549 NSCLC; 21.3 µM in the assay with SK-MEL-5 melanoma; 6.91 µM in the assay on 786-0 renal; 21.9 µM in the assay with A498 renal; 25.5 µM with HL-60(TB) leukemia; 26.3 µM in the assay with CAKI-1 renal. For the same compound, the GI50 with SW-620 colon is 38.1 µM; with MDA-MB-435 it was 17.5 µM; in the assay on T-47D breast it was above 100 µM; with UACC-257 melanoma, above 100 µM. The TGI with A549 NSCLC is above 100 µM; in the assay on SK-MEL-5 melanoma, 57.6 µM; with 786-0 renal it was 27.7 µM; in the assay on A498 renal, 63.4 µM; with HL-60(TB) leukemia, above 100 µM; with CAKI-1 renal, above 100 µM. Further, the TGI with SW-620 colon is above 100 µM; in the assay with MDA-MB-435 it was 63.7 µM; in the assay on T-47D breast it was above 100 µM; in the assay on UACC-257 melanoma, above 100 µM.
For the compound `CS(=O)(=O)CCNCc1coc(-c2ccc3ncnc(Nc4ccc(OCc5ccccc5)cc4)c3c2)c1`, the GI50 in the assay on A549 NSCLC was 5.65 µM; in the assay with SK-MEL-5 melanoma, 3.27 µM; in the assay on 786-0 renal, 4.16 µM; with A498 renal it was 1.49 µM; with HL-60(TB) leukemia, 4.15 µM; in the assay on CAKI-1 renal it was 3.98 µM. Besides, the GI50 in the assay on SW-620 colon is 4.34 µM; with MDA-MB-435 it was 4.11 µM; in the assay on T-47D breast it was 3.57 µM; with UACC-257 melanoma, 3.67 µM. The TGI in the assay on A549 NSCLC is above 22 µM; with SK-MEL-5 melanoma it was 6.46 µM; in the assay with 786-0 renal it was 9.12 µM; in the assay on A498 renal, 6.25 µM; with HL-60(TB) leukemia, 9.13 µM; with CAKI-1 renal, 13.4 µM. Besides, the TGI in the assay on SW-620 colon is 8.34 µM; in the assay with MDA-MB-435, 8.23 µM; in the assay with T-47D breast, 8.03 µM; with UACC-257 melanoma it was 7.39 µM.
With `C=C(C)[C@@H]1CC[C@]2(COCCCN)CC[C@]3(C)[C@H](CC[C@@H]4[C@@](C)(CCCNCCCN)[C@H](C(=C)C)CC[C@]43C)[C@@H]12`, the GI50 in the assay with A549 NSCLC is 1.89 µM; in the assay on SK-MEL-5 melanoma it was 1.81 µM; in the assay on 786-0 renal, 1.56 µM; in the assay with A498 renal it was 14.5 µM; with HL-60(TB) leukemia, 1.64 µM; in the assay with CAKI-1 renal, 1.75 µM. Also, the GI50 in the assay on SW-620 colon was 1.84 µM; with MDA-MB-435 it was 1.84 µM; in the assay on T-47D breast it was 1.78 µM; in the assay on UACC-257 melanoma, 1.88 µM. Besides, the TGI in the assay with A549 NSCLC came out at 3.63 µM; in the assay on SK-MEL-5 melanoma, 3.27 µM; in the assay on 786-0 renal, 2.96 µM; in the assay with A498 renal, 37.1 µM; in the assay on HL-60(TB) leukemia it was 3.47 µM; with CAKI-1 renal, 3.13 µM. For the same compound, the TGI came to 3.79 µM with SW-620 colon, 3.41 µM in the assay on MDA-MB-435, 3.63 µM in the assay on T-47D breast and 3.67 µM with UACC-257 melanoma.
